In article PMC5687811 (ACS chemical neuroscience, 2016):
Where “and” joins values, the source holds several entries; their conditions need not be identical. Equal entries are not always repeated. Entries after “also recorded” stand apart in the source; their conditions may differ. Where two headings read alike, the source gives them in different places. [ ]: non-standard residue; d: D form. dPhe(4-I) = N[C@H](Cc1ccc(I)cc1)C(=O)O

Assays:
[1] = system: MC3R and MC4R knockout mice; settings: cited from earlier work
[2] = system: mMC5R; settings: read-out: EC50 at mMC5R; agonist; ref [22],[23]; cited from earlier work
[3] = system: wild type female and male littermate mice; assay: Cumulative food intake after ICV administration, TSE metabolic cages; type: in vivo, mice (mixed C57BL/6J and 129/Sv)
[4] = system: mMC1R; settings: read-out: EC50 at mMC1R; agonist; ref [22],[23]; cited from earlier work
[5] = system: wild type female and male littermate mice; assay: Respiratory exchange ratio; type: in vivo, mice (mixed C57BL/6J and 129/Sv)
[6] = Solubility / precipitation of SKY2-23-7; type: physicochemical
[7] = system: male and female mice; type: in vivo, mice (mixed C57BL/6J and 129/Sv); settings: 5 nmol ICV, conventional cages, pilot
[8] = system: mMC4R; settings: HEK293 cells, ref [22],[23] (Doering et. al.), cited from earlier work
[9] = system: mouse (m)MC3R; settings: HEK293 cells, cited from earlier work
[10] = system: wild type female and male littermate mice; assay: Locomotor activity; type: in vivo, mice (mixed C57BL/6J and 129/Sv); settings: for total ambulatory activity (cumulative beam breaks): ICV
[11] = system: wild type female and male littermate mice; assay: Energy expenditure after ICV administration, TSE metabolic cages; type: in vivo, mice (mixed C57BL/6J and 129/Sv)
[12] = system: females, ovariectomized or estradiol treated; settings: cited from earlier work; for effect of ovariectomy or estradiol treatment on food intake after ligand: ref [13],[21],[34]
[13] = ref [13],[24]; cited from earlier work
[14] = system: male and female rats; settings: ICV, ref [5] Maranon and coworkers in 2014, cited from earlier work
[15] = system: female and male rats; settings: ref [13]; cited from earlier work
[16] = system: mMC4R; settings: antagonist/inverse agonist, ref [40],[41], cited from earlier work

Question: For MTII, which “sex difference in food intake effect” value ([1]; MC3R and MC4R knockout mice, same genotype, ref [15],[16]) is on record?
Answer: Its value is “no differences reported between male and female mice”.

Question: What about the food intake ([1]; MC3R and MC4R knockout mice, ref [15],[16]) of the same substance?
Answer: The food intake was “decrease food intake”.

Question: With Ac-W[dPhe(4-I)]RW-NH2 [SKY2-23-7] as the substance, how does the EC50 [2] read?
Answer: The EC50 was 2800 ± 1100 nM.

Question: What about the cumulative food intake ([3]; female, 2.5 nmol ICV, 6–24 hours post-administration) of the same substance?
Answer: The cumulative food intake was “significant increase in food intake”.

Question: What about the “cumulative food intake, dose response” value ([3]; female, 2.5 nmol, 1 nmol, and 0.5 nmol ICV) of the same substance?
Answer: The value was “A dose response pattern is observed”.

Question: What about the cumulative food intake ([3]; female, 5 nmol ICV) of the same substance?
Answer: The cumulative food intake was “no significant effect”.

Question: And the cumulative food intake ([3]; female, 7.5 nmol ICV)?
Answer: The cumulative food intake was “no significant effect”.

Question: What about the cumulative food intake ([3]; male, 2.5 nmol ICV) of the same substance?
Answer: The cumulative food intake was “no significant effect”.

Question: And the cumulative food intake ([3]; male, 7.5 nmol ICV, 2–24 hours post-administration)?
Answer: Its cumulative food intake is “significant increase in food intake”.

Question: What about the “cumulative food intake, dose response” value ([3]; male, ICV, metabolic cages, p<0.0001) of the same substance?
Answer: The value was “dose dependent increase in food intake”.

Question: And the EC50 [4]?
Answer: Its EC50 is 2000 ± 600 nM.

Question: And the “average RER” value ([5]; female, 2.5 nmol ICV, both dark and light cycles, p<0.01)?
Answer: Its value is “significantly increased”.

Question: What about the RER ([5]; female, 7.5 nmol ICV) of the same substance?
Answer: Its RER is “no effect”.

Question: And the RER ([5]; male, 2.5 nmol ICV)?
Answer: The RER was “minimal effect”.

Question: And the “hourly RER” value ([5]; male, 7.5 nmol ICV, early light cycle 15–18 hrs post-administration)?
Answer: The value was “significantly increased”.

Question: And the “total average RER” value ([5]; male, 7.5 nmol ICV, entire light cycle (14–26 hrs))?
Answer: The value was “No significant effect”.

Question: What about the “total average RER” value ([5]; male, 7.5 nmol ICV, first dark cycle (0–14 hrs), p<0.01) of the same substance?
Answer: Its value is “increased”.

Question: What about the “total average RER” value ([5]; male, 7.5 nmol ICV, first two hours following injection, p<0.01) of the same substance?
Answer: The value was “increased”.

Question: And the “hourly RER” value ([5]; male, 7.5 nmol ICV, individual time points 2–7 and 10–14 hours)?
Answer: Its value is “increased”.

Question: And the solubility in saline ([6]; added to saline alone)?
Answer: The solubility in saline was “precipitated out”.

Question: What about the “solubility limit on dosing” value ([6]; doses above 7.5 nmol ICV, male mice) of the same substance?
Answer: The value was “higher dosing was prevented due to the solubility”.

Question: And the food intake ([7]; female, trend of increase in food intake)?
Answer: Its food intake is “not observed”.

Question: What about the food intake ([7]; male) of the same substance?
Answer: Its food intake is “an increase in food intake was observed”.

Question: And the “pA2 at mMC4R” value ([8]; Schild analysis, antagonist)?
Answer: The value was 7.83 and 7.83±0.16.

Question: What about the “agonist activity at mMC4R” value ([8]; up to 100 µM) of the same substance?
Answer: Its value is “minimal agonist activity”.

Question: And the “pA2 at mMC3R” value ([9]; Schild analysis, antagonist, ref [22],[23] (Doering et. al.))?
Answer: The value was 5.43±0.16.

Question: What about the “agonist activity at mMC3R” value ([9]; up to 100 µM, ref [22],[23] (Doering et. al.)) of the same substance?
Answer: Its value is “minimal agonist activity; also recorded: lacks the mMC3R partial agonism”.

Question: And the hourly activity ([10]; female, 2.5 nmol ICV, 5 hours post administration)?
Answer: The hourly activity was “Increased activity”.

Question: What about the hourly activity ([10]; female, 2.5 nmol ICV, 24 hours post administration) of the same substance?
Answer: The hourly activity was “significant decrease in activity”.

Question: And the total activity ([10]; female, 5 nmol ICV, light cycle, p<0.05)?
Answer: Its total activity is “significant decrease in total activity”.

Question: What about the total activity ([10]; female, other doses ICV, dark cycle (0–14 hrs), p=0.28) of the same substance?
Answer: Its total activity is “no other doses resulted in a significant changes in total activity”.

Question: What about the total activity ([10]; female, other doses ICV, light cycle (14–26 hrs), p=0.65) of the same substance?
Answer: Its total activity is “no other doses resulted in a significant changes in total activity”.

Question: And the hourly activity ([10]; male, 7.5 nmol ICV, time points 8, 15, 18, and 24 hours)?
Answer: The hourly activity was “significant increases in activity”.

Question: And the “total ambulatory activity (cumulative beam breaks)” value ([10]; male, dark cycle (0–14 hrs), p=0.39)?
Answer: Its value is “no significant effect”.

Question: And the “total ambulatory activity (cumulative beam breaks)” value ([10]; male, light cycle (14–26 hrs), p=0.64)?
Answer: The value was “no significant effect”.

Question: What about the energy expenditure ([11]; female, 2.5 nmol ICV, p<0.001, observed at 5, 6, 15, 21, and 22 hours) of the same substance?
Answer: Its energy expenditure is “significant increase in energy expenditure”.

Question: And the “total calories burned in 24 hours” value ([11]; female, 7.5 nmol ICV, p<0.05)?
Answer: The value was “significant decrease in total calories burned”.

Question: And the “energy expenditure (trend)” value ([11]; male, 7.5 nmol ICV)?
Answer: Its value is “trended towards decreasing energy expenditure”.

Question: And the “hourly energy expenditure normalized to weight (Kcal/hr/kg)” value ([11]; male, 7.5 nmol ICV, at 4, 20, 21, 23 and 24 hours, compared to control)?
Answer: The value was “decrease in energy expenditure”.

Question: What about the “total calories spent in 24 hours” value ([11]; male, ICV) of the same substance?
Answer: Its value is “no effect”.

Question: And the energy expenditure ([11]; male, doses lower than 7.5 nmol ICV)?
Answer: The energy expenditure was “No significant effect”.

Question: Which results are given for SHU9119?
Answer: effect of ovariectomy or estradiol treatment on food intake after ligand [12]: minimal effects on food intake; energy expenditure [13]: decrease energy expenditure; blood pressure ([14]; female rats): no effect on blood pressure; blood pressure ([14]; male rats): significantly reduced blood pressure; partial agonism at mMC3R ([9]; at 1 µM, ref [22] (Doering et. al.)): 50%

Question: With “AGRP: endogenous MC3R antagonist and MC4R antagonist/inverse agonist AGRP (SSRRCVRLHESCLGQQVPCCDPCATCYCRFFNAFCYCRKLGTAMNPCSRT; UniProt O00253 83-132, looked up)” as the substance, how does the “effect of ovariectomy on ligand-dependent energy expenditure” value ([12]; females, ref [13]) read?
Answer: Its value is “ovariectomy can blunt”.

Question: What about the “effect of ovariectomy or estradiol treatment on food intake after ligand” value [12] of the same substance?
Answer: Its value is “minimal effects on food intake”.

Question: And the energy expenditure [13]?
Answer: Its energy expenditure is “decrease energy expenditure”.

Question: What about the “respiratory exchange ratio (RER)” value [13] of the same substance?
Answer: The value was “increase respiratory exchange ratio”.

Question: And the food intake ([1]; ICV, MC3R and MC4R male knockout mice, ref [8],[12])?
Answer: The food intake was “increased food intake”.

Question: What about the “energy expenditure, female versus male” value [15] of the same substance?
Answer: Its value is “reduces energy expenditure in female rats more than in male rats”.

Question: And the food intake [15]?
Answer: The food intake was “food intake is unaffected”.

Question: What about the “pA2 at mMC4R” value [16] of the same substance?
Answer: Its value is 9.4.

Question: What about the Ki ([16]; read-out: Ki at mMC4R) of the same substance?
Answer: The Ki was 0.4 to 2.5 nM.
